The values below come from patent US11931463B2, “All-in-one fixed-dose combination for treating Helicobacter pylori infection” (RedHill Biopharma Ltd., priority 2013, dated 2024).

The conditions of data set [1]: cited from earlier work.
Data set [2] relates to plasma proteins. The conditions noted are these: cited from earlier work.
The nature of data set [3]: Assay and related substances under accelerated conditions 40° C./75% RH. Type of data set: physicochemical.
A short description of data set [4]: clinical. The conditions noted are these: human, in vivo, 50 mg.
For data set [5], the system named is H. pylori. The conditions noted are these: cited from earlier work.
Data set [6] in a line: Phase I open-label 2-arm crossover relative bioavailability study, plasma pharmacokinetics. The note with it: for concentration at 0.5 h / concentration at 1 h / concentration at 2 h / concentration at 3 h: both, human, in vivo. On the procedure:
A single center, randomized, single and multiple doses, open-label, 2-period, 2-sequence, crossover study was carried out on male and female volunteers.
A Phase I Open-Label, 2-Arm Crossover Study to Evaluate the Relative Bioavailability of the pharmaceutical composition, also herein as test formulation (Rifabutin/Amoxicillin/Omeprazole 12.5 mg/250 mg/10 mg) capsules given 3 times a day, every 8 hours, compared to the concomitant administration of the three drug substance components in fasted healthy volunteers (Table 13). Test formulation (Treatment-1) was analyzed in comparison to the pharmacokinetics of the reference drugs rifabutin, amoxicillin and omeprazole given concomitantly (Treatment-2) under fasting conditions.
Treatment-1: 4× Test formulation Amoxicillin, Rifabutin, Omeprazole 250 mg/12.5 mg/10 mg capsules (Test) given three times daily, in the morning, afternoon and evening, 8 hours apart, for a total daily oral dose of 3000 mg/150 mg/120 mg.
Treatment-2: 1× Mycobutin® 150 mg capsule (Reference-1)+2× Amoxicillin 500 mg capsule (Reference-2)+1× Prilosec® 40 mg delayed-release capsule (Reference-3) taken concomitantly each given three times daily, in the morning, afternoon and evening, 8 hours apart, for a total daily oral dose of 150 mg rifabutin/3000 mg amoxicillin/120 mg omeprazole.
Reference-1 Product, Dose and Mode of Administration: • Name: Mycobutin® • Dosage form/Route of administration: Capsule/Oral • Regimen: Single 150 mg dose (1×150 mg) given once in the morning, for a total daily oral dose of 150 mg.
Reference-2 Product, Dose and Mode of Administration: • Name: Amoxicillin • Dosage form/Route of administration: Capsule/Oral • Regimen: Single 1000 mg dose (2×500 mg) given three times daily, in the morning, afternoon and evening, 8 hours apart, for a total of a total daily oral dose of 3000 mg.
Reference-3 Product, Dose and Mode of Administration: • Name: Prilosec® • Dosage form/Route of administration: Delayed Release Capsule/Oral • Regimen: Single 40 mg dose (1×40 mg), given three times daily, in the morning, afternoon and evening, 8 hours apart, for a total of a total daily oral dose of 120 mg
Treatments: • Treatment-1: 4 capsules of the Test formulation was given three times daily, in the morning, afternoon and evening, 8 hours apart, for a total daily oral dose of 150 mg rifabutin/3000 mg amoxicillin/120 mg omeprazole) • Treatment-2: Reference-1 drug (Rifabutin) was given once in the morning together with 2 capsules of Reference-2 drug (amoxicillin) and 1 capsule of Reference-3 drug (Omeprazole). Each reference drug was given three times daily, in the morning, afternoon and evening, 8 hours apart, for a total daily oral dose of 150 mg rifabutin/3000 mg amoxicillin/120 mg omeprazole).
Single and multiple oral doses were administered under fasting conditions in each study period. The drug administrations were separated by a wash-out of 14 calendar days.
For each Treatment in each study period, 78 blood samples were collected on 26 occasions.
Main absorption and disposition parameters using a non-compartmental approach with a log-linear terminal phase assumption. Trapezoidal rule to estimate the area under the curve. The pharmacokinetic parameters for this study were to be Cmax, Tmax, Cmin, C24, Clast, Tlast, AUC0-24, AUC∞, Kel and T1/2el.
Statistical analysis of Tmax based on a non-parametric approach. Statistical analysis of all other pharmacokinetic parameters based on a parametric ANOVA model. […] ANOVA Model: • fixed factors: sequence, period, treatment • random factor: subject (nested within sequence) Safety: • Descriptive statistics.

Data set [7] can be described thus: In vitro dissolution assay, 900 ml 0.01 N HCl, 100 rpm, baskets apparatus. Type of data set: physicochemical. On the procedure: In some embodiments, an average of no less than 80% of amoxicillin is released in 60 min at 100 rpm in a baskets apparatus (900 ml 0.01 N HCl, at 100 rpm in a baskets apparatus). In some embodiments, an average of 90%, 96%, and 97% of the amoxicillin is released in an in vitro dissolution assay at 20, 30, and 45 minutes, respectively.
In some embodiments, an average of no less than 75% of rifabutin is released in 45 min at 100 rpm in a baskets apparatus (900 ml 0.01 N HCl, at 100 rpm in a baskets apparatus). In some embodiments, an average of 95, 97, and 98% of the rifabutin is released in an in vitro dissolution assay at 20, 30, and 45 minutes, respectively.

For data set [8] the following is noted: cited from earlier work. This is another data set of the same source.
The conditions of data set [9]: cited from earlier work. The source holds these as a separate data set.
[10] abbreviates: single oral 150 mg dose of rifabutin capsules, fasting.
[11] abbreviates: single oral 1000 mg dose of amoxicillin capsules, fasting.

What is called Cmax is the highest concentration seen after dosing. As a reminder, the Tmax is the time from dosing to the highest level.

Read-outs that look alike come from different tables or passages of the source.

As for 25-O-desacetylrifabutin, the “plasma metabolite: parent area under the curve ratio” value in data set [1] (in vivo) is listed as 0.10.
As for `CO[C@H]1/C=C/O[C@@]2(C)Oc3c(C)c(O)c4c(c3C2=O)C2=NC3(CCN(CC(C)C)CC3)NC2=C(NC(=O)/C(C)=C\C=C\[C@H](C)[C@H](O)[C@@H](C)[C@@H](O)[C@@H](C)[C@H](OC(C)=O)[C@@H]1C)C4=O` [Rifabutin], the “bound to plasma proteins” value in data set [2] (concentration range of 50 to 1000 ng/ml) was “About 85%”. Further, the “Related Substances, Total” value in data set [3] (T = 0) is on record as 1.13 % area. Moreover, the “Related Substances, Total” value in [3] (T = 1 month, 40° C./75% RH) was 2.11 % area. For the same compound, the Cmax in data set [4] was about 0.063 µg/mL. Moreover, in data set [5] (in general), the “mean rate of H. pylori resistance” value was 1.3%. Further, the “mean rate of H. pylori resistance” value in [5] (patients naïve to H. pylori eradication treatment) was 0.6%. Also, the mean systemic clearance in [1] (healthy adult volunteers, single oral dose) is on record as 0.69 (±0.32) L/hour/kg. In data set [1] (in vivo, po, 150 mg), the Cmax was 0.188 µg/mL. Further, in [1] (in vivo, po), the dose absorbed result was “at least 53%” and the “time to peak plasma concentrations” value is 2 to 4 h. For the same compound, in data set [1] (in vivo), the “contribution of renal and of biliary excretion of unchanged drug to systemic clearance” value is “approximately 5%”; the “decrease of AUC following multiple dosing” value is 38%; the “steady-state trough levels (Cp, Cminss, 24-hour post dose)” value was 0.05 to 0.065 µg/mL. Moreover, the initial half-life result in data set [1] (plasma elimination, biphasic) is recorded as “approximately 4 hours”. Also, in data set [1] (setting [10]), the T1/2el is 40 h and the Tmax is 3 h. In addition, the “extent of absorption of rifabutin, single 150 mg capsule relative to test formulation tid” value in [6] (150 mg rifabutin over 24 hours in both treatments) was 1.5 times. In data set [6], this compound displayed a concentration at 0.5 h of 0.00552 µg/mL, a concentration at 1 h of 0.0281 µg/mL, a concentration at 2 h of 0.0661 µg/mL and a concentration at 3 h of 0.0725 µg/mL. The “average released in in vitro dissolution assay” value (from here on “average released”) in data set [7] (20 minutes) turned out to be 95%. Moreover, the “average released” value in [7] (30 minutes) is 97%. For the same compound, in data set [7] (45 minutes), the “average released” value is listed as 98%.
For the compound `CC1(C)S[C@@H]2[C@H](NC(=O)[C@H](N)c3ccc(O)cc3)C(=O)N2[C@H]1C(=O)O` [Amoxicillin], the “Related Substances, Total” value in [3] (T = 0) was found to be 2.21 % area. The “Related Substances, Total” value in data set [3] (T = 1 month, 40° C./75% RH) amounted to 3.01 % area. In data set [8] (in vivo, po, 1000 mg), the T1/2el is 1.15 h. For the same compound, the “time to peak serum concentrations” value in data set [8] (in vivo, po) was 1 to 2 h. In addition, in data set [8] (in vivo), the “peak serum concentrations relative to equivalent dose of oral ampicillin” value is given as 2-2.5 times and the “stability in gastric acid” value was “stable in the presence of gastric acid”. Also, in data set [8] (setting [11]), the Cmax was 14 µg/mL and the Tmax is 1.65 h. Further, in data set [6], the concentration at 0.5 h was found to be 2.38 µg/mL, the concentration at 1 h turned out to be 8.92 µg/mL, the concentration at 2 h was determined as 14.7 µg/mL and the concentration at 3 h was found to be 11.3 µg/mL. Moreover, the “average released” value in [7] (20 minutes) is listed as 90%. For the same compound, the “average released” value in data set [7] (30 minutes) was 96%. In data set [7] (45 minutes), the “average released” value worked out at 97%.
On to 31-hydroxyrifabutin, for which the “plasma metabolite: parent area under the curve ratio” value in data set [1] (in vivo) is recorded as 0.07.
On to `COc1ccc2[nH]c([S+]([O-])Cc3ncc(C)c(OC)c3C)nc2c1` (centres unmarked) [Omeprazole], for which, in [2], the plasma protein binding result is on record as “about 95%”. For the same compound, the T1/2el in data set [9] (in vivo, po, 40 mg) is 1 h. Further, the “drug absorbed from the gastrointestinal tract” value in data set [9] (in vivo, po) is recorded as “approximately 35%”. In [9] (in vivo), the “dose excreted in the feces” value was 20%, the “dose recovered as urinary metabolites” value is reported as 80% and the “time to completion of absorption” value is at most 4 h. Besides, in data set [9] (plasma concentration-time curve), the “average half-life of the terminal phase” value is “approximately 40 minutes”. Besides, in data set [9] (single oral 40 mg dose of omeprazole delayed-release capsules, fasting), the Tmax was 1.75 h. Also, in data set [6], the concentration at 0.5 h is 0.0858 µg/mL, the concentration at 1 h was 0.613 µg/mL, the concentration at 2 h came to 0.828 µg/mL and the concentration at 3 h came to 0.466 µg/mL.
